Results published in patent publication US11850237B2, “Compounds and methods for treating influenza” (priority 2009, dated 2023).
In brackets after ≈: the same amount, converted by molar mass. Where two headings read alike, the source gives them in different places.

Tests used:
H1N1 A/PR/8/34 (PR8) = assay: microbe, parasite or virus in culture; format: cell-based, influenza A virus; conditions: for EC50 / EC90: Influenza A virus; for EC90: read-out: Virus Yield EC90; for antiviral activity against PR8, overall rating: PR8 influenza A virus, Table 1
[1] = Toxicity / cell viability by MTT in uninfected MDCK cells; format: cell-based, canine; conditions: dog, uninfected MDCK cells; uninfected cells
Procedure: (§1) Cell culture, treatment and transfection-Madin-Darby canine kidney (MDCK) cells, and human A549 alveolar type II-like epithelial, Jurkat Tlymphoblastoid and U397 monocytic leukemia cells were grown at 37° C. in a 5% CO2 atmosphere in RPMI 1640 (Invitrogen), supplemented with 10% fetal calf serum (FCS), 2 mM glutamine and antibiotics. Test compounds were added immediately after 1-hour adsorption period, and kept in the culture medium for the entire time of the experiment, unless differently specified. […] Cell viability was determined by the 3-(4,5-dimethylthiazol-2-yl)-2,5-diphenyltetrazolium bromide (MTT) to MTT formazan conversion assay (Sigma-Aldrich) as described previously. Microscopical examination of mock-infected or virus-infected cells was performed using a Leica DM-IL microscope and images were captured on a Leica DC 300 camera using Leica Image-Manager500 software.

MDCK cells [2] = assay: as above; format: cell-based, canine; conditions: MDCK cells, MTT
Procedure: as §1

A/WSN/33 (WSN) = assay: microbe, parasite or virus in culture; format: cell-based; conditions: Influenza A virus, MDCK, 24 h, read-out: EC50, inhibition of virus replication
[3] = tested on: H5N9 low-pathogenicity avian strain A/Ck/It/9097/97 (A/Ck); assay: microbe, parasite or virus in culture; format: cell-based; conditions: Influenza A virus, H5N9, MDCK, 24 h, read-out: EC50, inhibition of virus replication
[4] = tested on: H1N1 A/PR/8/34 (PR8) virus; assay: microbe, parasite or virus in culture; format: cell-based, influenza A virus; conditions: for EC50: Influenza A virus, MDCK, 24 h; for PR8 Yield: no zanamivir (Control)
[5] = tested on: H1N1 A/PR/8/34 (PR8) virus; assay: microbe, parasite or virus in culture; format: cell-based, influenza A virus; conditions: Influenza A virus, MDCK, 24 h
Parainfluenza = assay: Activity against other respiratory viruses: Parainfluenza; format: cell-based
Coronavirus = assay: Activity against other respiratory viruses: Coronavirus; format: cell-based
Adenovirus = assay: Activity against other respiratory viruses: Adenovirus; format: cell-based; conditions: unidentified adenovirus
[6] = tested on: Respiratory syncytial virus; assay: Activity against other respiratory viruses: Respiratory syncytial virus; format: cell-based; conditions: human respiratory syncytial virus
Rhinovirus = assay: Activity against other respiratory viruses: Rhinovirus; format: cell-based, human rhinovirus; conditions: Enterovirus
[7] = tested on: viral hemagglutinin (HA0); format: cell-based, influenza A virus; conditions: for HA0 maturation in other host cells and strains: WSN in A549 cells, A/Ck and PR8 in MDCK cells
[8] = Double-blind placebo controlled trials in influenza-like illness; format: in vivo, human
Procedure: Evaluation of the effect of twice daily nitazoxanide for 5 days on the duration of symptoms in pediatric patients and adults with influenza-like illnesses was conducted. Two double-blind placebo controlled trials were conducted. Children 12 months-11 years of age were given NTZ suspension (n=100, 50 per group) and Patients ≥12 years of age were given NTZ 500 mg tablets (n=86, 43 per group). Single center trials were conducted. Studies were based on TAMIFLU® trials. The trials followed specific Inclusion/exclusion criteria. Inclusion required children age 1-11 years of patients ≥12 years of age with a fever >100° F. with ≥1 respiratory symptom (including cough, nasal discharge, sneezing, sore throat, etc.) and/or with ≥1 constitutional symptom (myalgia, malaise, fatigue, headache, chills/sweat, etc.). Major exclusions included symptom duration ≥72 hours, pregnancy or breastfeeding, concurrent antibiotics/antiviral medication, or a history of asthma or other pulmonary disease.
Patients were randomized to receive NTZ or placebo b.i.d. for 5 days. Nasopharyngeal swab collected at baseline for rapid direct immunofluorescence assay (SimulFluor respiratory Screen) for 7 viruses (RSV, Influenza A & B, Parainfluenza 1-3, and Adenovirus). Symptoms recorded in a daily diary by the patient (or parent) with each symptom graded on a scale of 0 to 3: absent, mild, moderate, severe. Tissue was stored in a ziplock plastic bag and collected daily by study personnel for weighing. A follow up physical examination was conducted on day 7. The primary endpoint was the time from baseline to each symptom returning to absent or mild (<2). Secondary endpoints include antibiotic use, day 7 respiratory symptoms, daily tissue/mucus weight.

influenza = assay: Clinical trials, treatment of influenza; format: in vivo, human; conditions: orally 300 mg or 600 mg twice daily for 5 days
Procedure: Low dose administration of thiazolides such as NTZ to treat virus infection. NTZ can be administered orally at a dose of 300 mg or 600 mg twice daily for 5 days as a treatment of influenza. […] Preferably, the dosage of nitazoxanide is 300 mg twice daily for 5 days, which is less than the dosage of NTZ needed to treat intestinal infections, thereby enabling a reduction of side effects associated with higher dosages. Thiazolides can also be administered as a modified release bi-layer tablet. As such, thiazolides can be administered in 100 mg, 200 mg, 300 mg, 400 mg, 500 mg or 600 mg doses twice daily for 5 days to treat virus infection.

[9] = Cytotoxicity (CC50) in the other respiratory virus assays
[10] = tested on: influenza A virus (PR8 in U937 and Jurkat, WSN in A549 cells); assay: Influenza A virus replication in human cells (U937, Jurkat, A549); format: cell-based; conditions: monocytic U937, T-lymphocytic Jurkat and alveolar type II-like A549 cells, read-out: EC50, inhibition of influenza A virus replication in human cells
[11] = tested on: H3N2 A/Firenze/7/03 (A/FI); format: cell-based, influenza A virus; conditions: MDCK cells, 10 μg/ml TIZ
[12] = tested on: influenza B virus, B/Parma/3/04; format: cell-based; conditions: B/Parma/3/04 influenza B, MDCK cells, 10 μg/ml TIZ
PR8 virus = format: cell-based, influenza A virus
[13] = biological target: viral hemagglutinin (HA0) (Influenza A virus, UniProt P03452); format: cell-based
viral hemagglutinin (HA0) (Influenza A virus, UniProt P03452), sequence (P03452 18-565 limits assumed): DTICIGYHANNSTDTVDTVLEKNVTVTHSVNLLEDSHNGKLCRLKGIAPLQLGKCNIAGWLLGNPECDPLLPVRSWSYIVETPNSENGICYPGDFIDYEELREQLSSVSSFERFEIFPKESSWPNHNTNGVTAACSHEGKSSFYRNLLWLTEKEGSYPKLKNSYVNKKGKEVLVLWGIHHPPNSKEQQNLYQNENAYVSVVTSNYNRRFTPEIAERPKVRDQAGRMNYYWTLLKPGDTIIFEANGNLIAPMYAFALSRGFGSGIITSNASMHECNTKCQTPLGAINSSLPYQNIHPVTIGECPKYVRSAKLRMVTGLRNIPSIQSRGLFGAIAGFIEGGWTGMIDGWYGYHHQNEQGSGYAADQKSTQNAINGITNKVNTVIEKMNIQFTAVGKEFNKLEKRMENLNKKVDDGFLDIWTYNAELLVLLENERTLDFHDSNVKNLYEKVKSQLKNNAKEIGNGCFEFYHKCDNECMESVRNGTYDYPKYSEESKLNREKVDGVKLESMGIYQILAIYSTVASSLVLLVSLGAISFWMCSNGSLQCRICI

MDCK cells [14] = assay: Host protein synthesis, eIF2α phosphorylation and Grp78/BiP in MDCK cells; format: cell-based, canine
Procedure: Metabolic labeling, analysis of protein synthesis and Western Blot Mock-infected or influenza virus-infected cells were labeled with 10 μCi/ml of [35S]-methionine-cysteine ([35S]-Met/Cys, Redivue Pro-Mix 35S in vitro cell-labeling mix; GE Healthcare) for the indicated times after 30 min. starvation in methionine/cysteine-free medium. For pulse/chase experiments, cells were labeled [35S]-Met/Cys (100 μCi/ml) for 15 min., after 30 min. starvation in methionine/cysteine-free medium. At the end of pulse, cells were chased in complete medium containing 10 mM cold methionine and 1 mM cycloheximide for different times in the absence or presence of TIZ. The pulse/chase were terminated by placing the cells on ice. After cell lysis in RIPA buffer (150 mM NaCl, 10 mM Tris-HCl pH 7.5, 4 mM EDTA, 1% Triton X-100, 600 mM KCl), containing 1 mM phenylmethylsulphonyl fluoride (PMSF) and a protease inhibitor cocktail (PIC; Roche Diagnostics GmbH), samples containing the same amount of radioactivity were separated by SDS/PAGE (3% stacking gel, 10% resolving gel) and processed for autoradiography, as described. Autoradiographic patterns were visualized and quantified in Typhoon-8600 Imager (Molecular Dynamics, Amersham Pharmacia Biotech) and images were acquired using ImageQuant software (Amersham Pharmacia Biotech) (MDP analysis).
For Western blot analysis, cells were lysed with cold high-salt extraction (HSB) buffer containing 2 mM dithiothreitol (DTT), 1 mM PMSF, 1 mM orthovanadate, 20 mM β-glycerophosphate, 1 mM p-nitrophenyl phosphate (pNPP) and PIC, or with RIPA buffer, containing 1 mM PMSF and PIC. […] Quantitative evaluation of proteins was determined by Versadoc-1000 analysis using the Quantity One software program, available through BIO-RAD Laboratories.

[15] = tested on: human low-density lipoprotein receptor (LDLR); assay: Plasma membrane targeting of LDLR in transfected MDCK cells; format: cell-based; conditions: LDLR-A18-GFP transfected MDCK cells, TIZ 10 μg/ml for 16 h
Description: For transfection experiments, MDCK cells plated in LabTekII coverglass chambers (Nunch-Thermo Fisher Scientific Inc.) were transiently transfected with green fluorescent protein (GFP)-tagged internalization-defective human low-density lipoprotein receptor (hLDLR) mutant (LDLR-A18-GFP plasmid, kindly provided by E. Rodriguez-Boulan, Cornell University New York, NY), using Lipofectamine 2000 (Invitrogen) according to the manufacturer's instructions.
For detection of plasma membrane targeting of human low-density lipoprotein receptor (hLDLR), MDCK cells plated in coverglass chambers were transiently transfected with GFPtagged internalization-defective hLDLR mutant (LDLR-A18-GFP plasmid) and, after 8 h, treated with TIZ (10 μg/ml) or vehicle for the following 16 h. After blocking protein synthesis with 100 μg/ml cycloheximide (Sigma-Aldrich) for 1 h, plasma membranes were stained using CellMask™ Orange plasma membrane stain (Molecular Probes, Invitrogen). After staining, cells were examined using a Leica DM-IL fluorescence microscope equipped with UV excitation filters. The images were captured with a Leica DC-300 camera using Leica Image-Manager500 software.

[16] = MDCK, 24 h, read-out: EC50, inhibition of virus replication
[17] = PR8, MDCK cells, read-out: Virus Yield EC50

## CC(=O)Oc1ccccc1C(=O)Nc1ncc([N+](=O)[O-])s1 [Compound 1, nitazoxanide]
H1N1 A/PR/8/34 (PR8); [16]
  EC50: 1 µg/mL
H1N1 A/PR/8/34 (PR8); MDCK, PR8 virus, separate studies, read-out: EC50 (molar equivalent)
  EC50: 3.3 µM
H1N1 A/PR/8/34 (PR8); [17]
  EC50: 1 µg/mL
H1N1 A/PR/8/34 (PR8); PR8, MDCK cells
  EC90: 7 µg/mL (≈ 22.8 µM)
H1N1 A/PR/8/34 (PR8)
  antiviral activity against PR8, overall rating: potent and selective
[1]
  CC50: > 50 µg/mL
MDCK cells [2]
  Toxicity LD50 (MTT): >50 µg/mL
A/WSN/33 (WSN)
  EC50: 0.5 µg/mL (≈ 1.63 µM)
[3]
  EC50: 1 µg/mL (≈ 3.25 µM)
[4]; read-out: EC50 of NTZ in the experiments with zanamivir
  EC50: 0.66 µg/mL
[4]; read-out: EC50 of NTZ in the experiments with zanamivir (molar equivalent)
  EC50: ~2.2 µM
[4]; Nitazoxanide 0.1 μg/ml
  PR8 Yield: 48 HAU/ml
[4]; Nitazoxanide 1 μg/ml
  PR8 Yield: 16 HAU/ml
[5]; read-out: EC50 of NTZ in the experiments with oseltamivir
  EC50: 1 µg/mL
[5]; read-out: EC50 of NTZ in the experiments with oseltamivir (molar equivalent)
  EC50: 3.3 µM
Parainfluenza
  EC50: 0.5 µg/mL (≈ 1.63 µM)
Coronavirus
  EC50: 1 µg/mL (≈ 3.25 µM)
Adenovirus
  EC50: 0.2 µg/mL (≈ 0.651 µM)
[6]
  EC50: 0.5 µg/mL (≈ 1.63 µM)
Rhinovirus
  EC50: > 10 µg/mL
[7]
  HA0 maturation in other host cells and strains: caused similar alterations
[8]; influenza-like illness, FIG. 13
  respiratory symptoms, Day 7 Physical Exam: reduces respiratory symptoms
[8]; subjects not positive for Adenovirus, RSV, Influenza A, Parainfluenza 1, FIG. 12
  resolution of symptoms associated with influenza-like illness: can resolve symptoms
[8]; twice daily for 5 days vs placebo, patients mostly negative for Adenovirus, RSV, Influenza A, Parainfluenza 1
  treatment of patients with influenza like illness: has the ability to treat patients
influenza
  treatment of influenza in clinical trials: has the ability to treat influenza
[9]
  CC50: > 50 µg/mL
[9]; Adenovirus line of Table 3
  CC50: >50 µg/mL
[9]; Coronavirus line of Table 3
  CC50: >50 µg/mL
[9]; Respiratory syncytial virus line of Table 3
  CC50: >50 µg/mL
[9]; Rhinovirus line of Table 3
  CC50: >50 µg/mL

## O=C(Nc1ncc([N+](=O)[O-])s1)c1ccccc1O [Compound 2, tizoxanide]
H1N1 A/PR/8/34 (PR8); H1N1 PR8, MDCK cells, 10 μg/ml TIZ, m.o.i. 10 or 0.001 ffu/cell
  effect on virus replication under multi- and single-step virus growth: dramatic block
H1N1 A/PR/8/34 (PR8); [16]
  EC50: 1 µg/mL
H1N1 A/PR/8/34 (PR8); [17]
  EC50: 1 µg/mL
H1N1 A/PR/8/34 (PR8); PR8, MDCK cells
  EC90: 9 µg/mL (≈ 33.9 µM)
H1N1 A/PR/8/34 (PR8)
  antiviral activity against PR8, overall rating: potent and selective
[1]
  CC50: > 50 µg/mL
MDCK cells [2]
  Toxicity LD50 (MTT): >50 µg/mL
A/WSN/33 (WSN)
  EC50: 0.5 µg/mL (≈ 1.89 µM)
[3]
  EC50: 0.5 µg/mL (≈ 1.89 µM)
[10]
  EC50: 0.3 µg/mL (≈ 1.13 µM)
[11]
  inhibition of virus replication: very effective
[12]
  inhibition of virus replication: very effective
PR8 virus
  effect on influenza virus replication: had no effect
PR8 virus; single administration after virus adsorption, 10 μg/ml, PR8, MDCK cells
  time after infection for which a single administration inhibits virus replication: at least 48 h
PR8 virus; treatment of cells only during the adsorption period
  effect on virus replication: did not inhibit virus replication
[13]
  Endo-H sensitivity of HA0: remained sensitive to digestion
  HA0 glycosylation (glucosamine, mannose incorporation): did not decrease glucosamine and actually increased mannose incorporation
  HA0 trimer formation: did not prevent HA0 ability to form trimers
  change in influenza virus protein synthesis pattern (HA0 band): disappearance of a band of approximately 79 kDa
  intracellular HA0 levels / accumulation: did not reduce intracellular HA0 levels
  plasma membrane levels of viral hemagglutinin: dramatically decreased
[7]; PR8-infected cells, 24 h p.i.
  viral proteins in purified virions from supernatant: could not be detected
[7]
  HA0 maturation in other host cells and strains: able to inhibit HA0 maturation
MDCK cells [14]; MDCK cells
  expression of Grp78/BiP (unfolded protein response marker): did not induce the expression
MDCK cells [14]; [35S]-Met/Cys incorporation, 10 μg/ml TIZ
  host protein synthesis: did not inhibit host protein synthesis
MDCK cells [14]; uninfected or PR8-infected cells
  phosphorylation of eukaryotic initiation factor 2α (eIF2-α): did not affect phosphorylation
[15]
  plasma membrane targeting of LDLR: did not inhibit plasma membrane targeting of LDLR
